Results on two compounds are retold here after US20080014192A1, “Methods For The Diagnosis And Treatment of Fungal Infections Caused By Microorganisms Producing Glucosylceramide” (priority 2006, published 2008).

Assay [1] has as its system Cn WT (C. neoformans var. grubii serotype A H99). Description: Tissue fungal burden (CFU) in Tgε26 mice infected with Cn wild-type. The format is in vivo, Cryptococcus neoformans. The method, then: (§1) Alveolar macrophage depletion was evaluated by intranasally introducing 60 μl of PBS, empty liposome or liposomes containing clodronate into the mouse and performing bronchoalveolar lavage at 48 hours or 6 days. Bronchoalveolar lavage was done by inserting a stub adapter in the trachea of the mouse and rinsing the alveolar spaces 10 times using 0.5 ml PBS (pH=7.4) for each wash. The collected fluid was spun down and alveolar macrophages were counted. Lavage samples were taken from two mice per time point per group. Experimental groups were divided into five mice each receiving PBS (control group), empty liposome (control group) or liposome encapsulated clodronate administered mice. Two days before infection with yeast, the mice were anesthesized and given 60 μl of PBS, empty liposomes or clodronate-encapsulated liposomes. After 48 hrs, mice were infected with the yeast cells as described above. Mice continued to receive PBS, liposome or clodronate treatment weekly.
(§2) Tissue fungal burden. […] Organs were homogenized in sterile PBS, using the Stomacher 80 (Lab system, Fisher Scientific, Pittsburgh, Pa., USA) for 2 minutes. Serial dilutions were then plated onto YPD plates and colony-forming units were counted and recorded. Statistical analysis was performed using Student's t test, and a p value of less than 0.05 was considered to be significant.
Tissue burden studies. […]

Assay [2] relates to Cn Δgcs1 mutant. Description: Tissue fungal burden (CFU) in Tgε26 mice infected with Cn Δgcs1. The class given is in vivo, Cryptococcus neoformans. The method, then:
as §1, §2
Tissue burden studies. To address the effect of macrophage depletion on the dissemination of Δgcs1 cells, we performed tissue burden studies of lung, brain, spleen, and kidney upon infection of Cn WT or Δgcs1 strain.

The test system of assay [3] is Cn Δgcs1 mutant. Description: Lung histopathology of Tgε26 mice infected with Cn Δgcs1. The format is in vivo, Cryptococcus neoformans. Particulars: day 16 and day 36 of infection; vs empty liposome.
Procedure: Histological analyses. Organs were harvested and fixed for 48 hours in 37% formaldehyde, paraffin-embedded, sectioned and stained with movat, mucicarmine, or hematoxylin and eosin.
Histopathology. To gain further insights in the host inflammatory response against Cn Δgcs1 cells in mice in which macrophages have been deleted, we performed a histology analysis on lungs of Tgε26 mice infected with Δgcs1 strain and receiving empty liposome or liposome containing clodronate.
Assay [4] has as its system Cn WT (C. neoformans var. grubii serotype A H99). Description: Survival of Tgε26 mice infected intranasally with Cn wild-type. Particulars: Cn WT intranasal, weekly intranasal liposome treatment, no significant change vs controls. The class given is in vivo, Cryptococcus neoformans. The procedure: (§3) Animal studies. Four to six-week-old Tgε26 mice (Wang et al., 1994; Wang et al., 1997), available in our Animal Core Facility, Medical University of South Carolina, Charleston, S.C., were used for this study. Mice were anesthetized with an intraperitoneal injection of 60 μl xylaxine/ketamine mixture containing 5 mg xylazine and 95 mg ketamine per kilogram of body weight. Wild-type and mutant strains of Cn were grown in YPD media for 24 hrs at 30° C. The yeast cells were harvested and washed three times by centrifugation at 3000 rpm for 10 minutes and resuspended in sterile PBS (pH=7.4) at a concentration of 2.5×10^7 cells/ml. Mice were infected intranasally with 20 μl containing 5×10^5 wild-type, Δgcs1 or Δgcs1+GCS1 cells. Mice were fed ad libitum and monitored by twice-daily inspections. Mice that appeared moribund, in pain or with clinical signs of meningoencephalitis were sacrificed using CO2 inhalation followed by cervical dislocation. […] Survival data from the mice experiment were analyzed by Kluskal-Wallis test. […]
(§4) Alveolar macrophage depletion was evaluated by intranasally introducing 60 μl of PBS, empty liposome or liposomes containing clodronate into the mouse and performing bronchoalveolar lavage at 48 hours or 6 days. […] The collected fluid was spun down and alveolar macrophages were counted. […]

Assay [5] has as its system Cn Δgcs1 mutant. Description: Survival of Tgε26 mice infected intranasally with Cn Δgcs1. The format is in vivo, Cryptococcus neoformans. The procedure:
as §3, §4

Another assay concerns alveolar macrophages. Description: Alveolar macrophage depletion, count in bronchoalveolar lavage after intranasal liposomes. The format is in vivo, mouse. Particulars: P<0.05. The procedure: Alveolar macrophage depletion. Liposomes containing clodronate (dichloromethylenediphosphonic acid disodium salt) and empty liposomes used as control, were prepared as described previously (Van Rooijen, 1994). Briefly, 8 mg cholesterol (Avanti Polar Lipids) and 86 mg L-alpha phosphatidylcholine (Avanti Polar Lipids) were dissolved in chloroform, which was then slowly evaporated. The thin, filmy layer was resuspended in 10 ml of PBS or 0.6M clodronate. The mixture was exposed to N2 gas and incubated 2 hours at room temperature with gentle shaking. The mixture was then sonicated and incubated another 2 hours to allow liposome swelling. The solution was centrifuged at 10,000 g for 15 minutes and the liposomes containing clodronate were collected and washed twice with sterile PBS. The liposomes were kept at 4° C. under N2 until use for a maximum of 2 weeks.
as §4
Pharmacological depletion of alveolar macrophage. […] After 48 hours or 7 days from the injection, mice were sacrificed, the bronco alveolar lavage (BAL) fluid was collected and viability of alveolar macrophages assessed microscopically.

The subject of the next assay is fungal cells. Particulars: Ma et al., 2006 and Alvarez et al.; cited from earlier work.

Take `O=P([O-])([O-])C(Cl)(Cl)P(=O)(O)O.[Na+].[Na+]` [clodronate, dichloromethylenediphosphonic acid disodium salt]: the “tissue burden culture in the brain, Cn WT” value in assay [1] (Tgε26 mice, FIG. 15B) is given as “reduction of tissue burden culture in the brain (FIG. 15B) but this difference was not statistically significant”. In addition, the “tissue colonization of Cn WT cells in all organs analyzed” value in assay [1] (lung, brain, spleen, kidney, vs PBS or empty liposome groups) was “No statistically significant differences”. For the same compound, the “number of fungal cells in all organs analyzed, Δgcs1” value in the assay with Cn Δgcs1 mutant [2] (lung, brain, kidney, spleen, vs control treated groups, P<0.05) was “significantly lower number of fungal cells”. In addition, the “reduction of lung Δgcs1 fungal load” value in the assay on Cn Δgcs1 mutant [2] (macrophage-depleted Tgε26 lungs, P<0.001) was over 3000 fold. Besides, in the assay on Cn Δgcs1 mutant [2] ({}), the “delay in fungal growth in all other organs” value was 14 days. The “lung histopathology, Δgcs1 cells” value in the assay with Cn Δgcs1 mutant [3] is given as “few Δgcs1 cells in the lung parenchyma”. Moreover, the “average survival of Cn-infected mice” value in assay [4] was found to be 12.8 ± 5.2 days. Besides, in the assay on Cn Δgcs1 mutant [5] (Tgε26 mice depleted of AMs), the “additional days of survival of infection by the Δgcs1 strain” value lay within 18 to 20 days. For the same compound, the “average survival of Δgcs1-infected mice” value with Cn Δgcs1 mutant [5] ({}) was determined as 76.6 ± 5.3 days. Besides, the “decrease in number of alveolar macrophages (AMs)” value in the assay with alveolar macrophages (48 hours after single intranasal 60 μl dose of liposome suspension, vs PBS- or empty liposome-treated mice) was 58%. In the assay on alveolar macrophages (7 days after single intranasal 60 μl dose of liposome suspension, vs control-treated mice), the “reduction of AMs” value was found to be 52%.
In the case of `CCN(CC)CCCC(C)Nc1ccnc2cc(Cl)ccc12` (stereo not drawn) [chloroquine], the “extrusion of fungal cells from the intracellular to the extracellular compartment” value in the assay with fungal cells is recorded as “promote extrusion of fungal cells”.
